These results are taken from patent US11992494B2, “Cyclopentathiophene carboxamide derivatives as platelet activating factor receptor antagonists” (Boehringer Ingelheim International GmbH, priority 2021, dated 2024).

Where two headings read alike, the source gives them in different places.

Series [1] concerns the target T1, PAFR (Homo sapiens, UniProt P25105). As to conditions: cited from earlier work; for Ki: literature values (Weber et al.; EP0368175A1), read-out: PAFR affinity (Ki).
Target sequence in this assay (P25105 whole entry, species assumed): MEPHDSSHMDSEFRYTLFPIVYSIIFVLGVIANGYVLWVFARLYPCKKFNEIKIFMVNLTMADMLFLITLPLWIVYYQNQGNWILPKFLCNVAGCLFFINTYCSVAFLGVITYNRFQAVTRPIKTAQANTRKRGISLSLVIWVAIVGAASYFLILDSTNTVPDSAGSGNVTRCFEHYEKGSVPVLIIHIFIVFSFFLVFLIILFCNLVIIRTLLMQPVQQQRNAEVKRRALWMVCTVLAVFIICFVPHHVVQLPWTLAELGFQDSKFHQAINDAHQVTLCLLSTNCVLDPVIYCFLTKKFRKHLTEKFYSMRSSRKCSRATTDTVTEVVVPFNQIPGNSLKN
Series [2] is described as follows: Evaluation of chemical stability (solution state stress conditions, HPLC). Type of series: physicochemical. As for the experimental part: Evaluation of Chemical Stability Within solution state stability studies the influence of temperature, pH and light exposure are analyzed. Stress conditions are applied in order to get a fast signal of possible chemical decomposition via hydrolytical, oxidative or photodegradative pathways. […] The stressed/stored samples are analysed by a stability indicative chiral or achiral HPLC-method, as appropriate. Degradation studies are used to simulate chemical stability of compounds in the acidic part of the gastrointestinal tract. The compounds of the invention show high chemical stability in acidic aqueous media (pH value ca. 1.2) what makes their application as medical drugs to treat human diseases less restricted and troublesome. […] Compound is dissolved in an HPLC vial in a mixture of acetonitrile/0.1 M aqueous HCl (ratio: 2:3; pH ca. 1.2) to get a concentration of approximately 0.25 mg/ml. The vial is then transferred into an HPLC autosampler system and maintained at the desired temperature of, e.g., 40° C. A first sample is taken and injected immediately into a standard HPLC system with a UV DAD detector. A further sample is injected after 24 hours. Amount of degraded compound is measured by determining the recovery rate of compound [%] for the 24 h injection using an HPLC standard gradient method. Therefore the peak area of the main peak for the first injection (AUt0) is determined and set as 100%. Peak area of the main peak is determined also for the 24 h injection (AU24 h) and expressed as fraction of (AU24 h)/(AUt0)[%]. Analogously, the amount of degraded compound is determined for stability examinations running for more than 1 day, e.g., for 3 days.

The target of series [3] is T1, PAFR. Briefly: cellular HTRF IP1 assay: inhibition of PAFR activation by PAF C-16 ligand (endpoint assay). Type of series: cell-based. The arrangement: expressed in transfected cells; host or cells: HEK293. The method, boiled down:
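HEK293 cells overexpressing human PAFR were preincubated with compound (1% DMSO) 90 min at 37°C, then challenged with 11 nM PAF C-16 for 60 min in HBSS/20 mM HEPES pH 7.4/50 mM LiCl/0.1% BSA. IP1 accumulation read by HTRF (665/620 nm emission).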
On the technique in general: Time-resolved FRET reads energy transfer from a long-lived donor to a nearby acceptor.
Target sequence in this assay (P25105 whole entry): as the sequence (P25105 whole entry, species assumed) above

In series [4] the target is T1, PAFR. The conditions noted are these: PAFR binding, Miyazawa et al.; cited from earlier work.
Target sequence in this assay (P25105 whole entry, species assumed): as above
The target in series [5] is PAF (Homo sapiens, UniProt P25105). As to conditions: see EP0480455A1, cited from earlier work.
Setting [6] is: HEK293 cells overexpressing human PAFR, PAF ligand 11 nM, Table 2.
Where [7] appears, read: 40° C., ACN/0.1M aq. HCl (pH ca. 1.2).
Where [8] appears, read: dedicated head-to-head comparison assay run: cyclopropylene vs di-methyl / cyclobutylene analogues.

Sequence of PAF (P25105 whole entry): as the sequence (P25105 whole entry, species assumed) above

One may read the Ki as the dissociation constant of the complex between target and ligand, obtained from inhibition or displacement. For `Cc1nnc2n1-c1sc3c(c1C(c1ccccc1Cl)=NC2)CC(C(=O)N1CCOCC1)C3` (single isomer, unassigned; (+)) [(+)-bepafant], the Ki in series [1] was 660 nM.

For `Cc1nnc2n1-c1sc3c(c1C(c1ccccc1Cl)=NC2)CC(C(=O)N1CCOCC1)C3` (single isomer, unassigned; (-)) [(−)-bepafant], the Ki in series [1] is 14 nM. For `Cc1nnc2n1-c1sc(CCC(=O)N3CCOCC3)cc1C(c1ccccc1Cl)=NC2C` (stereo not drawn) [example 1 of EP0368175A1 (−)-enantiomer], in series [1] (see EP0368175A1), the “binding to the PAFR of (−)-enantiomer relative to (+)-enantiomer” value was “(−)-enantiomer 35 times stronger binding”. As for `Cc1nnc2n1-c1sc3c(c1C(c1ccccc1Cl)=NC2C)CC(C(=O)N1CCOCC1)C3` (single isomer, unassigned; (+)) [(+) 9dA], the Ki in series [1] is 400 nM. Broadly, the IC50 is the concentration that gives 50% inhibition. On to `CCCN(CCC)C(=O)[C@@H]1Cc2sc3c(c2C1)C(c1ccccc1Cl)=NC1(CC1)c1nnc(C)n1-3` [Example 104, (13′S)-9′-(2-chlorophenyl)-3′-methyl-N, N-dipropyl-16′-thia-2′,4′,5′,8′-tetraazaspiro[cyclopropane-1,7′-tetracyclo[8.6.0.0^2,6.0^11,15]hexadecane]-1′(10′),3′,5′,8′,11′(15′)-pentaene-13′-carboxamide], for which, in series [2] (0.25 mg/ml, pH 1.2), the “Amount of degradation after 3 d at 40° C. in ACN/0.1M aq. HCl” value is given as 1.5%. In series [3] (setting [6]), this compound returned an IC50 of 0.9 nM. With `Cc1nnc2n1-c1sc3c(c1C(c1ccccc1Cl)=NC21CC1)C[C@H](C(=O)N1CCOCC1)C3` [Example 114], the “Amount of degradation after 3 d at 40° C. in ACN/0.1M aq. HCl” value in series [2] (setting [7]) turned out to be 4%. The figures for the IC50 in series [3] (setting [6]) and in series [3] (setting [8]) were 7.2 nM and 6.6 nM, respectively. The corresponding values for `Cc1nnc2n1-c1sc3c(c1C(c1ccccc1Cl)=NC21CC1)C[C@H](C(=O)N[C@@H]1CCC(F)(F)C1)C3` [Example 124] are 2.5%, 2.4 nM and 2.6 nM. `Cc1nnc2n1-c1sc3c(c1C(c1ccccc1Cl)=NC2C)CC(C(=O)N1CCOCC1)C3` (single isomer, unassigned; (+)) [(+) 9dB]: the Ki in series [1] is 3000 nM. For the compound `C#CCCOC(=O)N1CCc2c(sc3c2C(c2ccccc2Cl)=NC(C)c2nnc(C)n2-3)C1` (single isomer, unassigned) [compound 35 of Miyazawa et al. (−) isomer], the IC50 in series [4] was 420 nM.

Take `Cc1nnc2n1-c1sc3c(c1C(c1ccccc1Cl)=NC2C)CC(C(=O)N1CCOCC1)C3` (single isomer, unassigned; (-)) [(−) 9dB]: in series [1], the Ki was 8 nM. With `Cc1nnc2n1-c1sc3c(c1C(c1ccccc1Cl)=NC2C)CC(C(=O)N1CCOCC1)C3` (single isomer, unassigned; (-)) [(−) 9dA], the Ki in series [1] is 70 nM. On to `C#CCCOC(=O)N1CCc2c(sc3c2C(c2ccccc2Cl)=NC(CC)c2nnc(C)n2-3)C1` (racemic) [compound 24 of Miyazawa et al. racemate], for which, in series [4], the IC50 is 22 nM. With `Cc1nnc2n1-c1sc3c(c1C(c1ccccc1Cl)=NC2)CC(C(=O)N1CCOCC1)C3` (racemic) [WEB 2170 (bepafant) racemate], the Ki in series [1] was 15 nM. Turning to `Cc1nnc2n1-c1sc3c(c1C(c1ccccc1Cl)=NC2C)CCN(C(=O)OC(C)(C)C#N)C3` (single isomer, unassigned) [compound 34 of Miyazawa et al. (−) isomer], in series [4], the IC50 was 500 nM. As to `C#CCCOC(=O)N1CCc2c(sc3c2C(c2ccccc2Cl)=NC(C)c2nnc(C)n2-3)C1` (single isomer, unassigned) [compound 22 of Miyazawa et al. (−) isomer], the IC50 in series [4] is 82 nM.

`Cc1nnc2n1-c1sc(CCC(=O)N3CCOCC3)cc1C(c1ccccc1Cl)=NC2C` (stereo not drawn) [example 1 of EP0368175A1 S-configured isomer]: the “PAF-antagonistic activity relative to racemate” value in series [5] is “S-configured isomer with several times”; in series [5] (listed as Compound B S-configured enantiomer), “several times stronger”. For the compound `C#CCCOC(=O)N1CCc2c(sc3c2C(c2ccccc2Cl)=NC(C)c2nnc(C)n2-3)C1` (single isomer, unassigned) [compound 22 of Miyazawa et al. (+) isomer], the IC50 in series [4] is 0.34 nM.

On to `C#CCCOC(=O)N1CCc2c(sc3c2C(c2ccccc2Cl)=NC(C)(C)c2nnc(C)n2-3)C1` [compound 23 of Miyazawa et al.], for which the IC50 in series [4] is 160 nM. For `C#CCCOC(=O)N1CCc2c(sc3c2C(c2ccccc2Cl)=NC(C)c2nnc(C)n2-3)C1` (racemic) [compound 22 of Miyazawa et al. racemate], the IC50 in series [4] is 1.5 nM. In the case of `C#CCCOC(=O)N1CCc2c(sc3c2C(c2ccccc2Cl)=NC(C)c2nnc(C)n2-3)C1` (single isomer, unassigned) [compound 35 of Miyazawa et al. (+) isomer], the IC50 in series [4] is 2.8 nM.
